Laboratory results: patent publication US20230365592A1 (Agios Pharmaceuticals, Inc., priority 2022, published 2023)

The compounds below were run against T1, human PAH with the R408W mutation (Homo sapiens, UniProt P00439, R408W) (assay: Cell Based Phenylalanine Flux Assay). Settings: A375 cells expressing human R408W PAH; 24 hrs compound incubation; 13C-Tyrosine by LC-MS; average where tested multiple times; read-out: AC50.
T1 construct: expressed in transfected cells
T1 sequence (P00439 1-452 R408W): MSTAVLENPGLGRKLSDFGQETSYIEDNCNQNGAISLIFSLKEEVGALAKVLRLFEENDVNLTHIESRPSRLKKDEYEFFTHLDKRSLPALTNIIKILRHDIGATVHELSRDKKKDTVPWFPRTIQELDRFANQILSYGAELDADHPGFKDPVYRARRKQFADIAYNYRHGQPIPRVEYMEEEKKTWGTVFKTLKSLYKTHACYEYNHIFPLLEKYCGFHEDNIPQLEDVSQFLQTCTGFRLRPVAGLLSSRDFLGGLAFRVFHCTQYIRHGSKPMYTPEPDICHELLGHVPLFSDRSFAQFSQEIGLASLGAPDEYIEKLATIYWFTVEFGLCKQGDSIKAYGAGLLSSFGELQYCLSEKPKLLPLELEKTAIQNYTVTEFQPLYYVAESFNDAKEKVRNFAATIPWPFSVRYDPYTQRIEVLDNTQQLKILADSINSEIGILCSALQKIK
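Note: after compound treatment, cells received sepiapterin plus isotope-labelled Phenylalanine for 4 hours, then labelled Tyrosine in the medium was quantified, 10-point 2-fold dilution series run in duplicate.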

Row | AC50 [nM] | SMILES
1 | < 500 | CC(C)c1nnc(C(=O)N2CCc3[nH]cnc3[C@H]2c2cc3c(C(F)(F)F)cccn3n2)o1 [Example 1486, (S)-(5-isopropyl-1,3,4-oxadiazol-2-yl)(4-(4-(trifluoromethyl)pyrazolo[1,5-a]pyridin-2-yl)-6,7-dihydro-1H-imidazo[4,5-c]pyridin-5(4H)-yl)methanone]
2 | > 5000 | CC(C)c1nnc(C(=O)N2CCc3[nH]cnc3[C@@H]2c2cc3c(C(F)(F)F)cccn3n2)o1 [Example 1487, (R)-(5-isopropyl-1,3,4-oxadiazol-2-yl)(4-(4-(trifluoromethyl)pyrazolo[1,5-a]pyridin-2-yl)-6,7-dihydro-1H-imidazo[4,5-c]pyridin-5(4H)-yl)methanone]
3 | < 500 | Cc1cccc(-c2nnc(C(=O)N3CCc4[nH]cnc4[C@H]3c3cc4cccc(F)n4n3)o2)n1 [Example 1496, (S)-(4-(7-fluoropyrazolo[1,5-a]pyridin-2-yl)-6,7-dihydro-1H-imidazo[4,5-c]pyridin-5(4H)-yl)(5-(6-methylpyridin-2-yl)-1,3,4-oxadiazol-2-yl)methanone]
4 | 1000 to 5000 | Cc1cccc(-c2nnc(C(=O)N3CCc4[nH]cnc4[C@@H]3c3cc4cccc(F)n4n3)o2)n1 [Example 1497, (R)-(4-(7-fluoropyrazolo[1,5-a]pyridin-2-yl)-6,7-dihydro-1H-imidazo[4,5-c]pyridin-5(4H)-yl)(5-(6-methylpyridin-2-yl)-1,3,4-oxadiazol-2-yl)methanone]
5 | > 5000 | O=C(c1nnc(-c2cnn(C(F)(F)F)c2)o1)N1CCc2[nH]cnc2[C@@H]1c1cc2cccc(C(F)F)n2n1 [Example 1503, (R)-(4-(7-(difluoromethyl)pyrazolo[1,5-a]pyridin-2-yl)-6,7-dihydro-1H-imidazo-[4,5-c]pyridin-5(4H)-yl)(5-(1-(trifluoromethyl)-1H-pyrazol-4-yl)-1,3,4-oxadiazol-2-yl)methanone]
6 | < 500 | O=C(c1nnc(-c2cnn(C(F)(F)F)c2)o1)N1CCc2[nH]cnc2[C@H]1c1cc2c(Cl)cccn2n1 [Example 1504, (S)-(4-(4-chloropyrazolo[1,5-a]pyridin-2-yl)-6,7-dihydro-1H-imidazo[4,5-c]pyridin-5(4H)-yl)(5-(1-(trifluoromethyl)-1H-pyrazol-4-yl)-1,3,4-oxadiazol-2-yl)methanone]
7 | < 500 | O=C(c1nnc(-c2ccn(C(F)(F)F)n2)o1)N1CCc2[nH]cnc2[C@H]1c1cc2ccccn2n1 [Example 1506, (S)-(4-(pyrazolo[1,5-a]pyridin-2-yl)-6,7-dihydro-1H-imidazo[4,5-c]pyridin-5(4H)-yl)(5-(1-(trifluoromethyl)-1H-pyrazol-3-yl)-1,3,4-oxadiazol-2-yl)methanone]
8 | > 5000 | O=C(c1nnc(-c2ccn(C(F)(F)F)n2)o1)N1CCc2[nH]cnc2[C@@H]1c1cc2ccccn2n1 [Example 1507, (R)-(4-(pyrazolo[1,5-a]pyridin-2-yl)-6,7-dihydro-1H-imidazo[4,5-c]pyridin-5(4H)-yl)(5-(1-(trifluoromethyl)-1H-pyrazol-3-yl)-1,3,4-oxadiazol-2-yl)methanone]
9 | < 500 | O=C(c1nnc(-c2ccn(C(F)(F)F)n2)o1)N1CCc2[nH]cnc2[C@H]1c1cc2c(C(F)(F)F)cccn2n1 [Example 1512, (S)-(5-(1-(trifluoromethyl)-1H-pyrazol-3-yl)-1,3,4-oxadiazol-2-yl)(4-(4-(trifluoromethyl)pyrazolo[1,5-a]pyridin-2-yl)-6,7-dihydro-1H-imidazo[4,5-c]pyridin-5(4H)-yl)methanone]
10 | 1000 to 5000 | O=C(c1nnc(-c2ccn(C(F)(F)F)n2)o1)N1CCc2[nH]cnc2[C@@H]1c1cc2c(C(F)(F)F)cccn2n1 [Example 1513, (R)-(5-(1-(trifluoromethyl)-1H-pyrazol-3-yl)-1,3,4-oxadiazol-2-yl)(4-(4-(trifluoromethyl)pyrazolo[1,5-a]pyridin-2-yl)-6,7-dihydro-1H-imidazo[4,5-c]pyridin-5(4H)-yl)methanone]
11 | 1000 to 5000 | O=C(c1nnc(C2CCC2)o1)N1CCc2[nH]cnc2[C@@H]1c1cc2c(C(F)F)cccn2n1 [Example 1521, (R)-(5-cyclobutyl-1,3,4-oxadiazol-2-yl)(4-(4-(difluoromethyl)pyrazolo[1,5-a]pyridin-2-yl)-6,7-dihydro-1H-imidazo[4,5-c]pyridin-5(4H)-yl)methanone]

Continued, compound first:

Row | SMILES | AC50 [nM]
12 | CC(C)c1nnc(C(=O)N2CCc3[nH]cnc3[C@H]2c2cc3cccc(Cl)n3n2)o1 [Example 1488, (S)-(4-(7-chloropyrazolo[1,5-a]pyridin-2-yl)-6,7-dihydro-1H-imidazo[4,5-c]pyridin-5(4H)-yl)(5-isopropyl-1,3,4-oxadiazol-2-yl)methanone] | < 500
13 | Cc1cccc2cc([C@H]3c4nc[nH]c4CCN3C(=O)c3nnc(C(C)C)o3)nn12 [Example 1491, (R)-(5-isopropyl-1,3,4-oxadiazol-2-yl)(4-(7-methylpyrazolo[1,5-a]pyridin-2-yl)-6,7-dihydro-1H-imidazo[4,5-c]pyridin-5(4H)-yl)methanone] | 1000 to 5000
14 | CC(C)c1nnc(C(=O)N2CCc3[nH]cnc3[C@H]2c2cc3cccc(C(F)F)n3n2)o1 [Example 1492, (S)-(4-(7-(difluoromethyl)pyrazolo[1,5-a]pyridin-2-yl)-6,7-dihydro-1H-imidazo[4,5-c]pyridin-5(4H)-yl)(5-isopropyl-1,3,4-oxadiazol-2-yl)methanone] | 500 to 1000
15 | CC(C)c1nnc(C(=O)N2CCc3[nH]cnc3[C@@H]2c2cc3cccc(C(F)F)n3n2)o1 [Example 1493, (R)-(4-(7-(difluoromethyl)pyrazolo[1,5-a]pyridin-2-yl)-6,7-dihydro-1H-imidazo[4,5-c]pyridin-5(4H)-yl)(5-isopropyl-1,3,4-oxadiazol-2-yl)methanone] | 1000 to 5000
16 | Cc1ncccc1-c1nnc(C(=O)N2CCc3[nH]cnc3[C@H]2c2cc3cccc(F)n3n2)o1 [Example 1494, (S)-(4-(7-fluoropyrazolo[1,5-a]pyridin-2-yl)-6,7-dihydro-1H-imidazo[4,5-c]pyridin-5(4H)-yl)(5-(2-methylpyridin-3-yl)-1,3,4-oxadiazol-2-yl)methanone] | < 500
17 | Cc1ncccc1-c1nnc(C(=O)N2CCc3[nH]cnc3[C@@H]2c2cc3cccc(F)n3n2)o1 [Example 1495, (R)-(4-(7-fluoropyrazolo[1,5-a]pyridin-2-yl)-6,7-dihydro-1H-imidazo[4,5-c]pyridin-5(4H)-yl)(5-(2-methylpyridin-3-yl)-1,3,4-oxadiazol-2-yl)methanone] | > 5000
18 | O=C(c1nnc(-c2ncccn2)o1)N1CCc2[nH]cnc2[C@H]1c1cc2cccc(C(F)F)n2n1 [Example 1499, (S)-(4-(7-(difluoromethyl)pyrazolo[1,5-a]pyridin-2-yl)-6,7-dihydro-1H-imidazo[4,5-c]pyridin-5(4H)-yl)(5-(pyrimidin-2-yl)-1,3,4-oxadiazol-2-yl)methanone] | 500 to 1000
19 | Cc1ncccc1-c1nnc(C(=O)N2CCc3[nH]cnc3[C@H]2c2cc3cccc(C(F)F)n3n2)o1 [Example 1500, (S)-(4-(7-(difluoromethyl)pyrazolo[1,5-a]pyridin-2-yl)-6,7-dihydro-1H-imidazo[4,5-c]pyridin-5(4H)-yl)(5-(2-methylpyridin-3-yl)-1,3,4-oxadiazol-2-yl)methanone] | < 500
20 | Cc1ncccc1-c1nnc(C(=O)N2CCc3[nH]cnc3[C@@H]2c2cc3cccc(C(F)F)n3n2)o1 [Example 1501, (R)-(4-(7-(difluoromethyl)pyrazolo[1,5-a]pyridin-2-yl)-6,7-dihydro-1H-imidazo[4,5-c]pyridin-5(4H)-yl)(5-(2-methylpyridin-3-yl)-1,3,4-oxadiazol-2-yl)methanone] | > 5000
21 | O=C(c1nnc(C2CCC2)o1)N1CCc2[nH]cnc2[C@H]1c1cc2ccccn2n1 [Example 1514, (S)-(5-cyclobutyl-1,3,4-oxadiazol-2-yl)(4-(pyrazolo[1,5-a]pyridin-2-yl)-6,7-dihydro-1H-imidazo[4,5-c]pyridin-5(4H)-yl)methanone] | < 500
22 | O=C(c1nnc(-c2cccnc2)o1)N1CCc2[nH]cnc2[C@H]1c1cc2cccc(F)n2n1 [Example 1522, (S)-(4-(7-fluoropyrazolo[1,5-a]pyridin-2-yl)-6,7-dihydro-1H-imidazo[4,5-c]pyridin-5(4H)-yl)(5-(pyridin-3-yl)-1,3,4-oxadiazol-2-yl)methanone] | < 500
23 | O=C(c1nnc(-c2cccnc2)o1)N1CCc2[nH]cnc2[C@@H]1c1cc2cccc(F)n2n1 [Example 1523, (R)-(4-(7-fluoropyrazolo[1,5-a]pyridin-2-yl)-6,7-dihydro-1H-imidazo[4,5-c]pyridin-5(4H)-yl)(5-(pyridin-3-yl)-1,3,4-oxadiazol-2-yl)methanone] | > 5000
24 | COc1ccc(-c2nnc(C(=O)N3CCc4[nH]cnc4[C@@H]3c3cc4cccc(F)n4n3)o2)nc1 [Example 1524, (R)-(4-(7-fluoropyrazolo[1,5-a]pyridin-2-yl)-6,7-dihydro-1H-imidazo[4,5-c]pyridin-5(4H)-yl)(5-(5-methoxypyridin-2-yl)-1,3,4-oxadiazol-2-yl)methanone] | > 5000
25 | COc1ccc(-c2nnc(C(=O)N3CCc4[nH]cnc4[C@H]3c3cc4cccc(F)n4n3)o2)nc1 [Example 1525, (S)-(4-(7-fluoropyrazolo[1,5-a]pyridin-2-yl)-6,7-dihydro-1H-imidazo[4,5-c]pyridin-5(4H)-yl)(5-(5-methoxypyridin-2-yl)-1,3,4-oxadiazol-2-yl)methanone] | 500 to 1000
